# Reference: ChEMBL document CHEMBL1139806, “Synthesis, anticancer, and cytotoxic activities of some mononuclear Ru(II) compounds” (Bioorg Med Chem, 2007)
# Columns and labels:
# Type in all cases: functional, cell-based
# CCRF-CEM = experiment: Cytotoxicity against human CEM cells
# L1210 = experiment: Cytotoxicity against mouse L1210 cells
# [1] = Cytotoxicity against human Molt 4/C8 cells; details: Molt4/C8
Compound,IC50 (CCRF-CEM) [µM],IC50 (L1210) [µM],IC50 [1] [µM]
NC(=S)N/N=C/c1ccccc1Cl,98,84,200
NC(=S)/N=N/c1c(O)[nH]c2ccccc12,249,382,405
NC(=S)N/N=C/c1ccc(Cl)cc1,194,284,302
NC(=S)N/N=C/c1ccccc1F,166,242,140
Oc1ccccc1/C=N/c1ccc(F)c(Cl)c1,100,68,112
COc1ccc(/C=N/NC(N)=S)cc1,158,232,196
